Measured values: the NIST ThermoML archive (doi:10.1016/j.jct.2008.07.010)

Experiment: xn = mol fraction of the nth substance listed
Conditions: 101 kPa, Liquid; for viscosity: Capillary tube (Ostwald / Ubbelohde) method; for speed of sound: Sing-around technique in a fixed-path interferometer; for mass density: Vibrating tube method

CC(C)CCCC(C)CCCC(C)CCCCC(C)CCCC(C)CCCC(C)C (stereo not given) [2,6,10,15,19,23-hexamethyltetracosane] + CC(C)O
Conditions | mass density, 298.15 K [kg/m3] | mass density, 303.15 K [kg/m3] | mass density, 308.15 K [kg/m3] | speed of sound, 298.15 K [m/s] | speed of sound, 303.15 K [m/s] | speed of sound, 308.15 K [m/s] | viscosity, 298.15 K [mPa·s] | viscosity, 303.15 K [mPa·s] | viscosity, 308.15 K [mPa·s]
x2 = 0 | 805.122 | 801.912 | 798.709 | 1381.9 | 1364.1 | 1346.5 | 28.26 | 22.09 | 17.77
x2 = 0.0621 | 804.504 | 801.238 | 797.982 | 1377.4 | 1359.1 | 1341.4 | 24.12 | 18.75 | 15.29
x2 = 0.0949 | 804.196 | 800.909 | 797.625 | 1374.9 | 1356.8 | 1338.9 | 22.69 | 17.69 | 14.48
x2 = 0.1438 | 803.771 | 800.451 | 797.133 | 1371.4 | 1353.3 | 1335.5 | 21.22 | 16.63 | 13.66
x2 = 0.218 | 803.155 | 799.796 | 796.425 | 1366 | 1347.9 | 1330 | 19.65 | 15.45 | 12.74
x2 = 0.2865 | 802.572 | 799.185 | 795.767 | 1360.2 | 1342.2 | 1324.2 | 18.5 | 14.56 | 12.03
x2 = 0.3119 | 802.336 | 798.955 | 795.521 | 1358.2 | 1340 | 1321.9 | 18.11 | 14.24 | 11.76
x2 = 0.4022 | 801.467 | 798.03 | 794.563 | 1349.5 | 1331.3 | 1313.3 | 16.68 | 13.05 | 10.84
x2 = 0.5142 | 800.109 | 796.619 | 793.069 | 1336.4 | 1318.1 | 1299.9 | 14.34 | 11.37 | 9.424
x2 = 0.5952 | 798.83 | 795.275 | 791.676 | 1324.5 | 1306.4 | 1288.1 | 11.77 | 9.455 | 7.904

CCCCCCCCCCCCCCCC [hexadecane] + CC(C)O
Conditions | mass density, 298.15 K [kg/m3] | mass density, 303.15 K [kg/m3] | mass density, 308.15 K [kg/m3] | speed of sound, 298.15 K [m/s] | speed of sound, 303.15 K [m/s] | speed of sound, 308.15 K [m/s] | viscosity, 298.15 K [mPa·s] | viscosity, 303.15 K [mPa·s] | viscosity, 308.15 K [mPa·s]
x2 = 0 | 770.456 | 766.981 | 763.52 | 1338.6 | 1320 | 1301.7 | 3.041 | 2.706 | 2.409
x2 = 0.0441 | 770.067 | 766.622 | 763.106 | 1334.2 | 1315.5 | 1297.1 | 2.867 | 2.521 | 2.231
x2 = 0.1285 | 769.792 | 766.198 | 762.606 | 1325.5 | 1306.8 | 1288.2 | 2.654 | 2.312 | 2.034
x2 = 0.1617 | 769.728 | 766.093 | 762.479 | 1321.8 | 1302.9 | 1284.7 | 2.601 | 2.264 | 1.989
x2 = 0.2294 | 769.59 | 765.938 | 762.287 | 1314.8 | 1295.9 | 1277.2 | 2.531 | 2.214 | 1.944
x2 = 0.2707 | 769.56 | 765.896 | 762.206 | 1310.1 | 1291.2 | 1272.5 | 2.504 | 2.199 | 1.928
x2 = 0.332 | 769.565 | 765.88 | 762.156 | 1303.1 | 1284.1 | 1265.6 | 2.47 | 2.176 | 1.92
x2 = 0.414 | 769.697 | 765.976 | 762.174 | 1293.5 | 1274.5 | 1255.6 | 2.43 | 2.153 | 1.904
x2 = 0.5064 | 770.039 | 766.23 | 762.374 | 1280.3 | 1261.3 | 1242.7 | 2.36 | 2.08 | 1.843
x2 = 0.6119 | 770.701 | 766.793 | 762.751 | 1263.2 | 1244.4 | 1225.5 | 2.242 | 1.95 | 1.719
x2 = 0.7008 | 771.594 | 767.564 | 763.551 | 1245.9 | 1227.1 | 1208.2 | 2.123 | 1.821 | 1.599
x2 = 0.762 | 772.47 | 768.35 | 764.298 | 1231.6 | 1212.9 | 1194 | 2.051 | 1.723 | 1.51
x2 = 0.8419 | 774.082 | 769.888 | 765.761 | 1208.4 | 1189.9 | 1171.2 | 1.974 | 1.628 | 1.418
x2 = 0.9188 | 776.284 | 772.263 | 768.061 | 1180 | 1161.6 | 1143.6 | 1.96 | 1.608 | 1.419
x2 = 0.9498 | 777.915 | 773.694 | 769.382 | 1166.2 | 1148.3 | 1130.3 | 1.983 | 1.647 | 1.454
